Results published in patent US8623429B2, “Stabilized anthocyanin compositions” (Omnica GmbH, priority 2007, dated 2014).

Experiment: Example 1: stability of bilberry extract anthocyanosides, 4 hours at 37° C., pH 7.0, with/without DHLA or GSH (HPLC)
Type: physicochemical
Settings: for % left, GSH (4 hours) / Peak Area, GSH (4 hours): 20 mg reduced L-glutathione; for % left, GSH (4 hours) / Peak Area, GSH (4 hours) / % left, DHLA (4 hours) / Peak Area, DHLA (4 hours) / % left, Blank (4 hours) / Peak Area, Blank (4 hours): pH 7.0, 37° C.; for % left, DHLA (4 hours) / Peak Area, DHLA (4 hours): 30 mg dihydrolipoic acid; for Peak Area, Fresh (0 hours): bilberry extract 60 mg/100 ml sodium phosphate buffer pH 7.0, fresh sample; for % left, Blank (4 hours) / Peak Area, Blank (4 hours): unprotected

Structure (SMILES)	% left, GSH (4 hours) [%]	Peak Area, GSH (4 hours)	% left, DHLA (4 hours) [%]	Peak Area, DHLA (4 hours)	Peak Area, Fresh (0 hours)	% left, Blank (4 hours) [%]	Peak Area, Blank (4 hours)
Oc1cc(O)c2cc(O[C@@H]3OC[C@H](O)[C@H](O)[C@H]3O)c(-c3ccc(O)c(O)c3)[o+]c2c1 [Cn-3O-Ara, Cyanidin 3-o-arabinoside]	79.5	293.7	70.2	258.4	369.6	38.5	142.3
Oc1cc(O)c2cc(O[C@H]3OC[C@H](O)[C@H](O)[C@H]3O)c(-c3cc(O)c(O)c(O)c3)[o+]c2c1 [Dp-3O-Ara, Delphinidin 3-o-arabinoside]	50.2	283.6	64.5	364.4	564.9	6.9	39.1
COc1cc(-c2[o+]c3cc(O)cc(O)c3cc2O[C@@H]2OC[C@H](O)[C@H](O)[C@H]2O)cc(OC)c1O [Mv-3O-Ara, Malvidin 3-o-arabinoside]	75.0	81.2	69.4	75.2	108.3	34.0	36.8
COc1cc(-c2[o+]c3cc(O)cc(O)c3cc2O[C@@H]2O[C@H](CO)[C@H](O)[C@H](O)[C@H]2O)cc(OC)c1O [Mv-3O-Gal, Malvidin 3-o-galactoside]	74.4	133.2	62.8	112.5	179.1	37.6	67.3
COc1cc(-c2[o+]c3cc(O)cc(O)c3cc2O[C@@H]2O[C@H](CO)[C@@H](O)[C@H](O)[C@H]2O)cc(OC)c1O [Mv-3O-Glc, Malvidin 3-o-glucoside]	73.7	336.2	63.0	287.4	455.9	36.1	164.7
COc1cc(-c2[o+]c3cc(O)cc(O)c3cc2O[C@@H]2O[C@H](CO)[C@@H](O)[C@H](O)[C@H]2O)ccc1O [Pe-3O-Glc, Peonidin 3-o-glucoside]	76.9	172.0	62.3	139.2	223.6	42.4	94.8
COc1cc(-c2[o+]c3cc(O)cc(O)c3cc2O[C@@H]2OC[C@H](O)[C@H](O)[C@H]2O)cc(O)c1O.[Cl-] [Pt-3O-Ara, Petunidin 3-o-arabinoside]	69.4	97.6	66.6	93.7	140.6	16.2	22.8
COc1cc(-c2[o+]c3cc(O)cc(O)c3cc2O[C@@H]2O[C@H](CO)[C@@H](O)[C@H](O)[C@H]2O)cc(O)c1O [Pt-3O-Glc, Petunidin 3-o-glucoside]	66.7	315.6	57.4	271.9	473.4	16.6	78.8
